The test system of data set [1] is Trypanosoma cruzi. The data set is described as follows: Antitrypanosomal activity against epimastigote form of Trypanosoma cruzi Y assessed as inhibition of parasite proliferation incubated for 72 hrs by resazurin dye based analysis. Type of data set: functional, organism-based. A general note: Alamar Blue is a resazurin reagent that responds to reducing activity.

Data set [2] in a line: Cytotoxicity against rat H9c2 cells assessed as reduction in cell viability measured after 72 hrs by resazurin due based analysis. Format: toxicity. Particulars: rat, H9c2 cells.
The nature of data set [3]: Selectivity index, ratio of CC50 for cytotoxicity against rat H9c2 cells to IC50 for antitrypanosomal activity against epimastigote form of Trypanosoma cruzi Y. Type of data set: toxicity, cell-based. As to conditions: read-out: Ratio IC50.
For data set [4], the system named is Trypanosoma cruzi. The data set is described as follows: Antitrypanosomal activity against trypomastigote form of Trypanosoma cruzi Y assessed as inhibition of parasite viability incubated for 24 hrs by light microscopy. Type of data set: functional, organism-based.
For data set [5], the target named is Cruzipain (Trypanosoma cruzi) (UniProt P25779). In words: Inhibition of recombinant Trypanosoma cruzi Cruzain using Z-FR-AMC as substrate at 100 uM preincubated with enzyme for 10 mins and measured for 5 mins by fluorescence based analysis. As to conditions: time 15.0 min.
Cruzipain (Trypanosoma cruzi), sequence (P25779 123-467 limits assumed): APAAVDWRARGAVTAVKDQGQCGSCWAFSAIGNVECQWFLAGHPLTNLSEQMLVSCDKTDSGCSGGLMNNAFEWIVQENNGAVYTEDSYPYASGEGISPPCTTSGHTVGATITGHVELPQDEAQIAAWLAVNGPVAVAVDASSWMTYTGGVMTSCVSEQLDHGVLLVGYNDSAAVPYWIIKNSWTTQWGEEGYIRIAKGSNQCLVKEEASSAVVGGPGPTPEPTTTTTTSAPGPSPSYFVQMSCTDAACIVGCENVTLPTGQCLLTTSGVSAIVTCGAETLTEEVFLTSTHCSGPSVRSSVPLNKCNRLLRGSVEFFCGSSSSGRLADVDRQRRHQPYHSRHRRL
Data set [6] shares this target. The data set is described as follows: Inhibition of recombinant Trypanosoma cruzi Cruzain using Z-FR-AMC as substrate at 100 uM measured for 5 mins by fluorescence based analysis.
Data set [7] in a line: Toxicity in po dosed Swiss mouse infected with trypomastigote form of Trypanosoma cruzi Y assessed as fur alteration administered via gavage for 7 days from day 5 post-infection and measured on day 13 post-infection. As to conditions: in vivo, 192 h, time 8 day. Format: organism-based.
The nature of data set [8]: Toxicity in po dosed Swiss mouse infected with trypomastigote form of Trypanosoma cruzi Y assessed as diarrhea administered via gavage for 7 days from day 5 post-infection and measured on day 13 post-infection. Type of data set: organism-based. Particulars: in vivo, 192 h, time 8 day.
Data set [9] can be described thus: Toxicity in po dosed Swiss mouse infected with trypomastigote form of Trypanosoma cruzi Y assessed as apathy administered via gavage for 7 days from day 5 post-infection and measured on day 13 post-infection. Type of data set: organism-based. Particulars: in vivo, 192 h, time 8 day.
Data set [10] in a line: Toxicity in po dosed Swiss mouse infected with trypomastigote form of Trypanosoma cruzi Y assessed as mortality administered via gavage for 7 days from day 5 post-infection and measured on day 13 post-infection. Particulars: in vivo, 192 h, time 8 day. Type of data set: organism-based.
Data set [11] can be described thus: Toxicity in Swiss mouse infected with trypomastigote form of Trypanosoma cruzi Y assessed as increase in weight gain at 10 to 100 mg/kg, po administered via gavage for 7 days from day 5 post-infection. Type of data set: organism-based. Particulars: in vivo, 168 h, dose 10-100 mg/kg, time 7 day.
The nature of data set [12]: Toxicity in Swiss mouse infected with trypomastigote form of Trypanosoma cruzi Y assessed as collateral effects at 10 to 100 mg/kg, po administered via gavage for 7 days from day 5 post-infection. Format: organism-based. Particulars: in vivo, 168 h, dose 10-100 mg/kg, time 7 day.
Data set [13] is described as follows: Hepatotoxicity in Swiss mouse infected with trypomastigote form of Trypanosoma cruzi Y assessed as plasma alanine aminotransferase level at 50 to 100 mg/kg, po administered via gavage for 7 days from day 5 post-infection by spectrophotometry. Type of data set: toxicity, organism-based. Particulars: in vivo, 168 h, dose 50-100 mg/kg, time 7 day.
The nature of data set [14]: Hepatotoxicity in Swiss mouse infected with trypomastigote form of Trypanosoma cruzi Y assessed as plasma aspartate aminotransferase level at 50 to 100 mg/kg, po administered via gavage for 7 days from day 5 post-infection by spectrophotometry. Type of data set: toxicity, organism-based. Particulars: in vivo, 168 h, dose 50-100 mg/kg, time 7 day.
For data set [15], the system named is Trypanosoma cruzi. In words: Anti-trypanosomal activity against trypomastigote form of Trypanosoma cruzi Y infected in Swiss mouse assessed as reduction in parasitemia at 50 mg/kg, po administered via gavage for 7 days from day 5 post-infection. Format: functional, organism-based. As to conditions: time 7.0 day.
Data set [16] deals with Mus musculus. The data set is described as follows: Reduction in plasma total IgG level in Swiss mouse infected with trypomastigote form of Trypanosoma cruzi Y at 100 mg/kg, po administered via gavage for 7 days from day 5 post-infection by ELISA. Format: functional, organism-based. Particulars: time 7.0 day. (In general: In an ELISA, binding on a coated surface is turned into a signal by an enzyme label.)

The subject of data set [17] is Mus musculus. In words: Reduction in plasma total IgG level in Swiss mouse infected with trypomastigote form of Trypanosoma cruzi Y at 10 to 50 mg/kg, po administered via gavage for 7 days from day 5 post-infection by ELISA. Type of data set: functional, organism-based. As to conditions: dose 10-50 mg/kg, time 7.0 day.
Data set [18] has as its system Mus musculus. In words: Reduction in plasma IgG1 level in Swiss mouse infected with trypomastigote form of Trypanosoma cruzi Y at 100 mg/kg, po administered via gavage for 7 days from day 5 post-infection by ELISA. Format: functional, organism-based. Particulars: time 7.0 day.
In data set [19] the test system is Mus musculus. In words: Reduction in plasma IgG2 level in Swiss mouse infected with trypomastigote form of Trypanosoma cruzi Y at 100 mg/kg, po administered via gavage for 7 days from day 5 post-infection by ELISA. Format: functional, organism-based. Particulars: time 7.0 day.
Data set [20] concerns Mus musculus. In words: Reduction in cardiac inflammation in Swiss mouse infected with trypomastigote form of Trypanosoma cruzi Y assessed as reduction in inflammatory nuclei at 10 to 100 mg/kg, po administered via gavage for 7 days from day 5 post-infection by Hematoxylin-Eosin staining based microscopy. Format: functional, organism-based. Particulars: dose 10-100 mg/kg, time 7.0 day.

In data set [21] the test system is Mus musculus. In words: Reduction in plasma IgG1 level in Swiss mouse infected with trypomastigote form of Trypanosoma cruzi Y at 10 to 50 mg/kg, po administered via gavage for 7 days from day 5 post-infection by ELISA. Format: functional, organism-based. Particulars: dose 10-50 mg/kg, time 7.0 day.
In data set [22] the test system is Mus musculus. In words: Reduction in plasma IgG2 level in Swiss mouse infected with trypomastigote form of Trypanosoma cruzi Y at 10 to 50 mg/kg, po administered via gavage for 7 days from day 5 post-infection by ELISA. Format: functional, organism-based. Particulars: dose 10-50 mg/kg, time 7.0 day.
Data set [23] can be described thus: Genotoxicity in rat H9c2 cells assessed as induction of DNA damage at 10 uM incubated for 72 hrs by gel electrophoresis analysis. Format: toxicity, cell-based. Particulars: h9c2, 72 h.
For data set [24], the system named is Trypanosoma cruzi. The data set is described as follows: Anti-trypanosomal activity against trypomastigote form of Trypanosoma cruzi Y infected in Swiss mouse assessed as reduction in parasitemia at 100 mg/kg, po administered via gavage for 7 days from day 5 post-infection. Format: functional. Particulars: 168 h, time 7 day.

As usually defined, the IC50 is the concentration at which inhibition is half-maximal. For orientation: inhibition means the relative decrease from the control value, in per cent. Broadly, the inhibition in vivo is the percentage by which the read-out fell short of the control.

SMILES strings stand for the structures. Active and inactive are the calls of the source. The calls are words filed in the database; no cut-off is given here.

As to `CCCc1ccc(OCC(O)Cn2cc(COc3ccc([N+](=O)[O-])cc3)nn2)c(OC)c1` (racemic), the IC50 in the data set with Trypanosoma cruzi [1] turned out to be 7.3 µM; in the data set on Trypanosoma cruzi [4], 8.41 µM. In addition, in [2], the IC50 at 72 h is 568 µM. Also, the selectivity ratio in [3] amounted to 77.6. The inhibition in [5] and in data set [6] was 24% throughout. The Activity entry in data set [7] is reported as “Non-Toxic”; in [8] it was “Non-Toxic”; in data set [9], “Non-Toxic”; in [10], “Non-Toxic”; in data set [11] it was “Toxic”; in data set [12], “Non-Toxic”. Besides, the Activity result in data set [13], in data set [14] and in [23] was “Non-Toxic” in each case. The result with Trypanosoma cruzi [15] was Active. Moreover, the inhibition result in the data set with Mus musculus [16], with Mus musculus [18], in the data set on Mus musculus [19] and in the data set with Mus musculus [20] was “Active” in each case. In addition, the inhibition result in the data set with Mus musculus [17], in the data set on Mus musculus [21] and in the data set on Mus musculus [22] was “inactive” in each case. The inhibition in vivo at 100 mg/kg with Trypanosoma cruzi [24] came to 99.4%.
